Assay results: paper PMC5887109, “Unravelling the Molecular Determinants of Bee Sensitivity to Neonicotinoid Insecticides” (Current Biology, 2018)

Test system: transgenic Drosophila expressing B. terrestris CYP9Q4
Test: Insecticide bioassay of transgenic Drosophila expressing CYP9Q4
Assay type: in vivo, Drosophila melanogaster
Details: Act5C-GAL4 driven; ratio of LC50 values
Method: Fly lines were made homozygous for the transgene integrations. […] LC50 values were calculated as above.

SMILES: O=[N+]([O-])NC1=NCCN1Cc1ccc(Cl)nc1 [imidacloprid]
- resistance compared to control flies without the transgene: no significant differences
